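Cultured in 96-well plates, cells were exposed to test compound for 48 hours across five concentrations. At the TGI there is no net growth.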
Legend:
Experiment in all cases: DTP human tumour cell line panel, 48 h
[1] = tested on: NCI-H226 lung
[2] = tested on: MALME-3M melanoma
[3] = tested on: MCF7 breast
[4] = tested on: SK-MEL-5 melanoma
[5] = tested on: SR leukemia
[6] = tested on: MDA-MB-231 breast
[7] = tested on: LOX IMVI melanoma
[8] = tested on: MDA-N
[9] = tested on: HCT-15 colon
[10] = tested on: HCC-2998 colon
[11] = tested on: HOP-62 NSCLC
[12] = tested on: A498 renal
[13] = tested on: CAKI-1 renal
[14] = tested on: DU-145 prostate
[15] = tested on: NCI-H522 lung
[16] = tested on: HCT-116 colon
[17] = tested on: BT-549 breast
[18] = tested on: SN12C renal

| SMILES | TGI [1] | TGI [2] | TGI [3] | TGI [4] | TGI [5] | TGI [6] | TGI [7] | TGI [8] | TGI [9] | TGI [10] | TGI [11] | TGI [12] | TGI [13] | TGI [14] | TGI [15] | TGI [16] | TGI [17] | TGI [18] |
| --- | --- | --- | --- | --- | --- | --- | --- | --- | --- | --- | --- | --- | --- | --- | --- | --- | --- | --- |
| C[C@]12CC[C@@H]3c4ccc(O)cc4CC[C@H]3[C@@H]1C/C(=C\c1ccncc1)C2=O | 68.6 µM | 54.8 µM | > 100 µM | 27.9 µM | > 100 µM | > 100 µM | 58.9 µM | > 100 µM | > 100 µM | > 100 µM | > 100 µM | 91.4 µM | > 100 µM | 91.6 µM |  |  |  |  |
| COC(=O)C1C(C(=O)OC)N(Cc2ccccc2)C(=O)N1Cc1ccccc1 (stereo not drawn) | > 100 µM | > 100 µM | > 100 µM | > 100 µM |  |  | > 100 µM | > 100 µM |  | > 100 µM | > 100 µM |  | > 100 µM | > 100 µM | 96.3 µM | > 100 µM | > 100 µM | > 100 µM |
| CCN1c2ccccc2-n2c(C)nnc2-c2c1n[nH]c2-c1ccccc1 |  |  |  | 35.3 µM | 59.2 µM | 71.1 µM | 89.2 µM | > 100 µM | > 100 µM |  |  |  |  | > 100 µM | 5.98 µM | > 100 µM |  | 81.6 µM |

— PubChem BioAssay (NCI)
